The results in this text go back to patent publication US20210169856A1, “FORMULATIONS COMPRISING DOPAMINE-B-HYDROXYLASE INHIBITORS AND METHODS FOR THEIR PREPARATION” (BIAL - PORTELA & CA, S.A., priority 2018, published 2021).

Each structure is given as a SMILES string.

This series can be described thus: Solubility of Compound X, Ph. Eur. 6 / USP 33 descriptive terms. The series is classed as physicochemical. An excerpt:
In this specification, we are adopting the definitions of solubility from the classification in the European Pharmacopeia 6th Edition and the United States Pharmacopeia 33 (Reference Tables: Description and Solubility):
Further increase in pH results in solubility decrease. […] The pH-dependent solubility profile of Compound X presents certain challenges to the development of pharmaceutical formulations, namely for its dissolution.

As for `Fc1cc(F)c2c(c1)C[C@@H](n1c(CCNCc3ccccc3)c[nH]c1=S)CO2` [Compound X], the Solubility result (N,N-methylpyrrolidone) was “sparingly soluble”; the Solubility result (acetone) is reported as “slightly soluble”; the Solubility result (acetonitrile) is reported as “very slightly soluble”; the Solubility result (acidified acetonitrile) is on record as “sparingly soluble”; the Solubility entry (acidified methanol) was “sparingly soluble”; the Solubility entry (acidified water (pH 1.2-2.0)) is on record as “sparingly soluble”. Besides, the Solubility entry by setting is: (chloroform) “very slightly soluble”; (cyclohexane) “insoluble”; (dichloromethane) “slightly soluble”; (dimethyl sulfoxide) “sparingly soluble”; (dimethylformamide) “sparingly soluble”; (ethanol) “practically insoluble”. Further, the Solubility entry reads like this: (ethyl acetate) “very slightly soluble”; (iso-octane) “insoluble”; (isopropanol) “insoluble”; (isopropyl acetate) “very slightly soluble”; (methanol) “very slightly soluble”; (methyl ethyl ketone) “slightly soluble”. Moreover, the Solubility entry was “sparingly soluble” (tetrahydrofuran), “very slightly soluble” (toluene) and “insoluble” (water). Besides, where the note is “aqueous medium”, the “Medium of maximum solubility” value is recorded as “HCl 0.01 (pH 2.0)”. For the same molecule, the “pH dependence of solubility in aqueous medium” value (aqueous medium) is on record as “decreases as the pH increases”.
